# From US20240269139A1, “COMPOUNDS FOR TARGETED PROTEIN DEGRADATION OF KINASES” (DANA-FARBER CANCER INSTITUTE, INC., priority 2020, published 2024)
# Values joined by “and” are separate entries in the source; they are usually repeats but may differ in a detail not shown here. Equal entries are not always repeated. Where two headings read alike, the source gives them in different places.
# How the values were obtained:
# Type in all cases: cell-based
# [1] = target: protein kinases (human kinome) (Homo sapiens, UniProt Q9H0K1); conditions: for logFC of SIK2: Accession Q9H0K1; for logFC SIK2 (Q9H0K1): direction of change down; for logFC SIK2: SIK2 (Q9H0K1), down
# Sequence of protein kinases (human kinome) (Homo sapiens, UniProt Q9H0K1) (Q9H0K1 whole entry): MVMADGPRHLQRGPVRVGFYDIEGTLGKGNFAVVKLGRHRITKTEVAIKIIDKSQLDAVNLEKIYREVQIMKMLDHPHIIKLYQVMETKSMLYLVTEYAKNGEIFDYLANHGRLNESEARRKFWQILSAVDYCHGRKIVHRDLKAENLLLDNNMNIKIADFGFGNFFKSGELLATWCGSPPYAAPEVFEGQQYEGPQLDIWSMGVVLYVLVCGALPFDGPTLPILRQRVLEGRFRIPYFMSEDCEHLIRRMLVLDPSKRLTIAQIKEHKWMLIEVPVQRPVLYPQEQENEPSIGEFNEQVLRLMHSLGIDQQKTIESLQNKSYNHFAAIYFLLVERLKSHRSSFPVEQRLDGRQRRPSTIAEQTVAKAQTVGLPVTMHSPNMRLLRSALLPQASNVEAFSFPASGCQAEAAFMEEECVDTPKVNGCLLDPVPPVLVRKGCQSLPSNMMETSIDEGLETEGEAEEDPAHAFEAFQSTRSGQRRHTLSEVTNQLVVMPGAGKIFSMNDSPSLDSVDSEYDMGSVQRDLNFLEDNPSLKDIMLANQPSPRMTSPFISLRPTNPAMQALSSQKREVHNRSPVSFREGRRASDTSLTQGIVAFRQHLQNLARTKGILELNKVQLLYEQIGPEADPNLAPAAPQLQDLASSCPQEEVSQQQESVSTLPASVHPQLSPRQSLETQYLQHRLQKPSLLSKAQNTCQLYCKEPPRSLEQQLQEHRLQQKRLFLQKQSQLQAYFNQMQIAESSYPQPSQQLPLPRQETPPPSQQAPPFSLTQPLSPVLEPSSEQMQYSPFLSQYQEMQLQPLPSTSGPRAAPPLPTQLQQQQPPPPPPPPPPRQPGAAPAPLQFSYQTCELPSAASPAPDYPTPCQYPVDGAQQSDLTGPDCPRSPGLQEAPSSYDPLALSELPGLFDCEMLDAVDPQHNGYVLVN
# [2] = target: protein kinases (human kinome) (Homo sapiens, UniProt Q16539); conditions: for logFC MAPK14: MAPK14, accession Q16539, direction of change down; for logFC of MAPK14: Accession Q16539
# Sequence of protein kinases (human kinome) (Homo sapiens, UniProt Q16539) (Q16539 whole entry): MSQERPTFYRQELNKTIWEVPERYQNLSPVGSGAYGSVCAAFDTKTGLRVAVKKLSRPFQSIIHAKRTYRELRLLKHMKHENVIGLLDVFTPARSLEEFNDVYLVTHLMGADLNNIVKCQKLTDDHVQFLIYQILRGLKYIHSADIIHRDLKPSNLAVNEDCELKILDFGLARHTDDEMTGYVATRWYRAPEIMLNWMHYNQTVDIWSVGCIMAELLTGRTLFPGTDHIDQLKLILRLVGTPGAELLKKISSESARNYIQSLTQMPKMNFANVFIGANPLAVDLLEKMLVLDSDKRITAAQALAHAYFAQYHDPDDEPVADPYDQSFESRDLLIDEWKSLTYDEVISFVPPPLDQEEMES
# [3] = target: protein kinases (human kinome) (Homo sapiens, UniProt P24941)
# [4] = MAPK14 (Q16539), experiment wp168
# [5] = MAPK14 (Q16539) protein abundance, degrader vs DMSO, down
# [6] = experiment wp146, direction of change down
structure (smiles),measurement,setting,value
Cc1ccc(NC(=O)c2cccc(C(F)(F)F)c2)cc1N1Cc2cnc(Nc3ccc(N4CCN(CCCOc5cccc6c5C(=O)N(C5CCC(=O)NC5=O)C6=O)CC4)nc3)nc2N(C)C1=O (stereo not shown) [DB0662],logFC of SIK2,[1]; experiment wp168,−0.777
same,logFC SIK2 (Q9H0K1),[1]; experiment wp168,−0.777
same,logFC,[2]; [4],−1.002
same,logFC MAPK14,[2]; experiment wp166,−1.002
"Cc1ccc(NC(=O)c2cccc(C(F)(F)F)c2)cc1N1Cc2cnc(Nc3ccc(N4CCN(Cc5cn(CCCCCOc6cccc7c6C(=O)N(C6CCC(=O)NC6=O)C7=O)nn5)CC4)nc3)nc2N(C)C1=O (stereo not shown) [DB0646, N-(3-(7-((6-(4-((1-(5-((2-(2,6-Dioxopiperidin-3-yl)-1,3-dioxoisoindolin-4-yl)oxy)pentyl)-1H-1,2,3-triazol-4-yl)methyl)piperazin-1-v)pyridin-3-yl)amino)-1-methyl-2-oxo-1,4-dihydropyrimido[4,5-d]pyrimidin-3(2H)-yl)-4-methylphenyl)-3-(trifluoromethyl)benzamide]",logFC of SIK2,[1]; experiment wp045,−0.638
same,logFC of SIK2,[1]; experiment wp107,−0.5933
same,logFC of SIK2,[1]; experiment wp114,−0.4347
same,logFC of SIK2,[1]; experiment wp117,−0.4315
same,logFC of SIK2,"[1]; experiment wp160, 4 hr",−0.5421
same,logFC of SIK2,"[1]; experiment wp160, 8 hr",−0.5707
same,logFC SIK2 (Q9H0K1),[1]; Experiment wp114,−0.4347
same,logFC SIK2,[1]; experiment wp045,−0.638
same,logFC SIK2 (Q9H0K1),[1]; experiment wp107,−0.5933
same,logFC SIK2 (Q9H0K1),[1]; experiment wp117,−0.4315
same,logFC SIK2 (Q9H0K1),"[1]; experiment wp160, 4 hr",−0.5421
same,logFC SIK2 (Q9H0K1),"[1]; experiment wp160, 8 hr",−0.5707
same,logFC of MAPK14,[2]; experiment wp172,−0.6469
same,logFC,[2]; [5],−0.7793 and −0.6013
same,logFC,"[2]; MAPK14 (Q16539), experiment wp107",−0.7601
same,logFC,"[2]; MAPK14 (Q16539), experiment wp114",−0.5814
same,logFC,"[2]; MAPK14 (Q16539), experiment wp117",−0.6392
same,logFC,"[2]; MAPK14 (Q16539), experiment wp152",−0.7821
same,logFC,"[2]; MAPK14 (Q16539), experiment wp160, 2 hr",−0.4404
same,logFC,"[2]; MAPK14 (Q16539), experiment wp160, 4 hr",−0.7162
same,logFC,"[2]; MAPK14 (Q16539), experiment wp160, 8 hr",−1.153
same,logFC,"[2]; MAPK14 (Q16539), experiment wp172",−0.6469
same,logFC MAPK14,[2]; experiment wp045,−0.7793
same,logFC MAPK14,[2]; experiment wp103,−0.6013
same,logFC MAPK14,[2]; experiment wp107,−0.7601
same,logFC MAPK14,[2]; experiment wp114,−0.5814
same,logFC MAPK14,[2]; experiment wp117,−0.6392
same,logFC MAPK14,[2]; experiment wp152,−0.7821
same,logFC MAPK14,"[2]; experiment wp160, 2 hr",−0.4404
same,logFC MAPK14,"[2]; experiment wp160, 4 hr",−0.7162
same,logFC MAPK14,"[2]; experiment wp160, 8 hr",−1.153
CC(C)S(=O)(=O)c1ccccc1Nc1nc(Nc2ccc(N3CCN(CCOCCOCCC(=O)NCCNc4cccc5c4CN(C4CCC(=O)NC4=O)C5=O)CC3)cc2)ncc1Cl (stereo not shown) [TL13.97],logFC CDK2 (P24941-1),[3]; experiment wp137,−0.7834
same,logFC CDK2 (P24941-1),"[3]; experiment wp137, direction of change down",−0.7834
Cc1cnc(Nc2ccc(N3CCN(CCCCCCC(=O)N[C@H](C(=O)N4C[C@H](O)C[C@H]4C(=O)N[C@@H](C)c4ccc(-c5scnc5C)cc4)C(C)(C)C)CC3)cc2)nc1Nc1cccc(S(=O)(=O)NC(C)(C)C)c1 [JWG.123],logFC of SIK2,[1]; experiment wp195,−0.6143
same,logFC SIK2 (Q9H0K1),[1]; experiment wp195,−0.6143
Cc1ccc(C(=O)Nc2ccc(CN3CCN(CCOCCOCCNC(=O)CNc4cccc5c4C(=O)N(C4CCC(=O)NC4=O)C5=O)CC3)c(C(F)(F)F)c2)cc1C#Cc1cnc2cccnn12 (stereo not shown) [TL13.150],logFC,[2]; [5],−0.3738
same,logFC MAPK14,[2]; experiment wp081,−0.3738
Cc1cc(Nc2ncc(Br)c(Nc3cccc(F)c3C(N)=O)n2)ccc1S(=O)(=O)NCCOCCOCCOCCOCCNc1cccc2c1C(=O)N(C1CCC(=O)NC1=O)C2=O (stereo not shown) [TMX.02.174],logFC CDK2 (P24941-1),[3]; experiment wp146,−2.295
same,logFC CDK2 (P24941-1),[3]; [6],−2.295
NC(=O)c1c(F)cccc1Nc1nc(Nc2ccc(S(=O)(=O)NCCOCCOCCOCCOCCNc3cccc4c3C(=O)N(C3CCC(=O)NC3=O)C4=O)cc2)ncc1Br (stereo not shown) [TMX.02.138],logFC CDK2 (P24941-1),[3]; experiment wp146,−2.27
same,logFC CDK2 (P24941-1),[3]; [6],−2.27
Cc1ncsc1-c1ccc([C@H](C)NC(=O)[C@@H]2C[C@@H](O)CN2C(=O)[C@@H](NC(=O)CCCCCN2CCc3cc(Nc4ncc(C5CC5)c(NCCCNC(=O)C5CCC5)n4)ccc3C2)C(C)(C)C)cc1 [BSJ.05.026],logFC of SIK2,[1]; experiment wp195,−0.9472
same,logFC SIK2 (Q9H0K1),[1]; experiment wp195,−0.9472
"Cc1ncsc1-c1ccc([C@H](C)NC(=O)[C@@H]2C[C@@H](O)CN2C(=O)[C@@H](NC(=O)CCCCCN2CCN(c3ccc(Nc4ncc5scc(-c6cccc(NS(C)(=O)=O)c6)c5n4)cc3)CC2)C(C)(C)C)cc1 [RSS0680, (2S,4R)-1-((S)-3,3-Dimethyl-2-(6-(4-(4-((7-(3-(methylsulfonamido)phenyl)thieno[3,2-d]pyrimidin-2-yl)amino)phenyl)piperazin-1-yl)hexanamido)butanoyl)-4-hydroxy-N—((S)-1-(4-(4-methylthiazol-5yl)phenyl)ethyl)pyrrolidine-2-carboxamide]",logFC of SIK2,[1]; experiment wp080,−0.6986
same,logFC of SIK2,[1]; experiment wp117,−0.7184
same,logFC SIK2,[1]; experiment wp080,−0.6986
same,logFC SIK2 (Q9H0K1),[1]; experiment wp117,−0.7184
same,logFC CDK2 (P24941-1),[3]; Experiment wp117,−0.6588
same,logFC CDK2 (P24941-1),[3]; experiment wp080,−0.4202
same,logFC CDK2 (P24941-1),"[3]; experiment wp080, direction of change down",−0.4202
same,logFC CDK2 (P24941-1),"[3]; experiment wp117, direction of change down",−0.6588
Cc1ccc(NC(=O)c2cccc(C(F)(F)F)c2)cc1N1Cc2cnc(Nc3ccc(N4CCN(CCCCCCOc5cccc6c5C(=O)N(C5CCC(=O)NC5=O)C6=O)CC4)nc3)nc2N(C)C1=O (stereo not shown) [DB0663],logFC of SIK2,[1]; experiment wp045,−0.4765
same,logFC SIK2,[1]; experiment wp045,−0.4765
same,logFC,[2]; [5],−0.6293
same,logFC MAPK14,[2]; experiment wp045,−0.6293
"CS(=O)(=O)Nc1cccc(-c2csc3cnc(Nc4ccc(N5CCN(CCCCCOc6cccc7c6C(=O)N(C6CCC(=O)NC6=O)C7=O)CC5)cc4)nc23)c1 (stereo not shown) [DB0614, N-(3-(2-((4-(4-(5-((2-(2,6-Dioxopiperidin-3-yl)-1,3-dioxoisoindolin-4-yl)oxy)pentyl)piperazin-1-yl)phenyl)amino)thieno[3,2-d]pyrimidin-7-yl)phenyl)methanesulfonamide]",logFC of SIK2,[1]; experiment wp045,−0.5292
same,logFC of SIK2,[1]; experiment wp117,−0.3766
same,logFC SIK2,[1]; experiment wp045,−0.5292
same,logFC SIK2 (Q9H0K1),[1]; experiment wp117,−0.3766
CC(C)S(=O)(=O)c1ccccc1Nc1nc(Nc2ccc(N3CCN(CCOCCNC(=O)CNc4ccc5c(c4)C(=O)N(C4CCC(=O)NC4=O)C5=O)CC3)cc2)ncc1Cl (stereo not shown) [SK.3.93],logFC CDK2 (P24941-1),[3]; experiment wp016,−0.5433
same,logFC CDK2 (P24941-1),"[3]; experiment wp016, direction of change down",−0.5433
Cc1ncsc1-c1ccc([C@H](C)NC(=O)[C@@H]2C[C@@H](O)CN2C(=O)[C@@H](NC(=O)CCOCCOCCN2CCN(c3ccc(Nc4ncc(Cl)c(Nc5ccccc5S(=O)(=O)C(C)C)n4)cc3)CC2)C(C)(C)C)cc1 [FMF.06.098.1],logFC of SIK2,[1]; experiment wp114,−0.4985
same,logFC of SIK2,[1]; experiment wp131,−0.602
same,logFC SIK2 (Q9H0K1),[1]; Experiment wp114,−0.4985
same,logFC SIK2 (Q9H0K1),[1]; experiment wp131,−0.602
same,logFC CDK2 (P24941-1),[3]; Experiment wp108,−0.6501
same,logFC CDK2 (P24941-1),"[3]; experiment wp108, direction of change down",−0.6501
same,logFC CDK2 (P24941-1),[3]; experiment wp131,−0.8725
same,logFC CDK2 (P24941-1),"[3]; experiment wp131, direction of change down",−0.8725
Cc1ccc(NC(=O)c2cccc(C(F)(F)F)c2)cc1N1Cc2cnc(Nc3ccc(N4CCN(CCCCC(=O)N[C@H](C(=O)N5C[C@H](O)C[C@H]5C(=O)N[C@@H](C)c5ccc(-c6scnc6C)cc5)C(C)(C)C)CC4)nc3)nc2N(C)C1=O [DB1113],logFC of SIK2,[1]; experiment wp168,−0.7296
same,logFC SIK2 (Q9H0K1),[1]; experiment wp168,−0.7296
same,logFC of MAPK14,[2]; experiment wp168,−1.73
same,logFC,[2]; [4],−1.73
O=C(COc1cccc2c1C(=O)N(C1CCC(=O)NC1=O)C2=O)NCCCCCCCN1CCc2cc(Nc3ncc(C4CC4)c(NCCCNC(=O)C4CCC4)n3)ccc2C1 (stereo not shown) [BSJ.04.178],logFC of SIK2,[1]; experiment wp134,−1.351
same,logFC SIK2 (Q9H0K1),[1]; experiment wp134,−1.351
